The text below walks through data of US20120245099A1, “APOPTOSIS INDUCER” (NIHON UNIVERSITY, priority 2009, published 2012).

Data set [1] concerns Cos cells. The data set can be described thus: Recombinant E3 protein added to cultured Cos cells, H33342 staining (Example 8). As to conditions: recombinant protein from E. coli, 24 hours after addition. The class given is cell-based. The protocol: To cultured Cos cells, a recombinant E3 protein produced from transformed E. coli was added. At 24 hours after addition, the cells were stained with H33342 and observed under a phase contrast microscope and a fluorescent microscope.

Data set [2] relates to P5 cells (vascular endothelial cell line). The data set can be described thus: Recombinant E3 protein added to cells, LDH activity in culture supernatant (Example 11). The data set is classed as cell-based. To be noted: P5 cells (adherent), 1 ng/ml or 5 ng/ml, 24 hours after addition.
The test system of data set [3] is Cos cells. Briefly: LDH activity in supernatant of Cos cells transformed with E3, E3 mutants or F IX EGF domain (Example 9). As to conditions: APtag4 vector, medium replaced 4 hours after gene transfer, measured after further 24 hours. The data set is classed as cell-based. From the text: cDNA for E3 (a part of Del-1) or an amino acid substitution mutant thereof was integrated into an AP expression vector (APtag4) and then introduced into cultured Cos cells. Likewise, cDNA for the EGF domain of blood coagulation factor IX (F IX; cDNA: SEQ ID NO: 24, amino acid sequence: SEQ ID NO: 25) was also integrated into APtag4 and then introduced into cultured Cos cells. As a control, an AP expression vector free from the above cDNAs for E3 and so on was used. It should be noted that the amino acid substitution mutants of E3 used for the above purpose were E3 D136E (cDNA: SEQ ID NO: 34, amino acid sequence: SEQ ID NO: 35), E3 D136N (cDNA: SEQ ID NO: 36, amino acid sequence: SEQ ID NO: 37) and E3 Y141F (cDNA: SEQ ID NO: 38, amino acid sequence: SEQ ID NO: 39). […] At 4 hours after gene transfer, the medium in each case was replaced with fresh culture medium and, after further 24 hours, the supernatant was measured for LDH activity. A cell lysate was prepared for each case and measured for LacZ activity. […]

Data set [4] concerns MEL cells (mouse leukemia cells). The data set can be described thus: Recombinant E3 protein added to cells, LDH activity in culture supernatant (Example 11). The data set is classed as cell-based. As to conditions: MEL cells (floating), 1 ng/ml or 5 ng/ml, 24 hours after addition.
In data set [5] the test system is Cos cells. The data set can be described thus: Concentration dependence of recombinant E3 protein, LDH activity in culture supernatant (Example 10). The data set is classed as cell-based. As to conditions: 24 hours after addition. The protocol:
A recombinant E3 protein produced from transformed E. coli was added at different concentrations (0 to 2.0 ng/ml) to cultured Cos cells. At 24 hours after addition, the culture supernatants were each measured for LDH activity.

Data set [6] deals with CRL cells (human melanoma cells). The data set can be described thus: Recombinant E3 protein added to cells, LDH activity in culture supernatant (Example 11). As to conditions: CRL cells (adherent), 1 ng/ml or 5 ng/ml, 24 hours after addition. The data set is classed as cell-based.
Data set [7] deals with Cos cells. Briefly: LDH activity in supernatant of Cos cells transformed with cDNA for Del-1 or its parts (Example 7). To be noted: APtag4 vector, medium replaced 24 hours after gene transfer, measured after further one hour. The class given is cell-based. From the text: cDNA for full-length Del-1 (SEQ ID NO: 4) was integrated into an AP expression vector (APtag4) and then introduced into cultured Cos cells. Likewise, cDNA for a part of Del-1 was also integrated into APtag4 and then introduced into cultured Cos cells. As a control, an AP expression vector free from the above cDNA for full-length Del-1 or a part thereof was used. It should be noted that the members each used as a part of Del-1 were EGF-like domains in the full-length Del-1 protein, i.e., EGF1 (E1; cDNA: SEQ ID NO: 26, amino acid sequence: SEQ ID NO: 27), EGF2 (E2; cDNA: SEQ ID NO: 28, amino acid sequence: SEQ ID NO: 29) and EGF3 (E3; cDNA: SEQ ID NO: 6, amino acid sequence: SEQ ID NO: 7), a fusion protein between discoidin I-like domains, i.e., Discoidin1 and Discoidin2 (C1C2; cDNA: SEQ ID NO: 30, amino acid sequence: SEQ ID NO: 31), an amino acid substitution (D136E) mutant of the above full-length Del-1 (Del1m; cDNA: SEQ ID NO: 32, amino acid sequence: SEQ ID NO: 33), as well as an amino acid substitution (D136E) mutant of E3, i.e., E3 D136E (E3m; cDNA: SEQ ID NO: 34, amino acid sequence: SEQ ID NO: 35). […] At 24 hours after gene transfer, the medium in each case was replaced with fresh culture medium and, after further one hour, the supernatant was measured for LDH activity. A cell lysate was prepared for each case and measured for LacZ activity. […]

Data set [8] concerns SCCKN cells (human oral squamous cell carcinoma-derived cell line). The data set can be described thus: Tumor-transplanted model mice, intratumoral gene transfer, tumor size over time (Example 12). The data set is classed as in vivo. As to conditions: nude mice with SCCKN tumors, 10 μg DNA, Day0 to Day7. The protocol:
For measurement of tumor size, the long axis and short axis of each tumor were measured with a ruler and multiplied by each other. In the figure, the tumor size (vertical axis) is expressed as a relative value (mean±SD), assuming that the value obtained at the time of gene transfer is set to 1.
Using tumor-transplanted model mice, a peptide containing the EGF3 domain, which is a part of Del-1, was studied for its therapeutic effect on tumor. More specifically, this peptide was verified as to whether its combined use with the FasL (Fas ligand) protein, whose antitumor effect has already been established, would enhance the antitumor effect when compared to FasL alone. […]
Then, 5×10^6 SCCKN cells (human oral squamous cell carcinoma-derived cell line) were injected under the dorsal skin of nude mice at 5 weeks of age. The mice were then measured over time for their tumor size. […]
The tumor size after gene transfer was measured over time (for 7 days: Day0 to Day7), and the results obtained are shown in FIG. 12.

As to “E3: EGF3 EGF-like domain of Del-1, amino acids 123-157, SEQ ID NO: 7 (CEAEPCRNGGICTDLVANYSCECPGEFMGRNCQYK; listed as Mus musculus)”, the “chromosome aggregation (H33342 nuclear staining)” value with Cos cells [1] is “chromosomes were aggregated”. Further, the “cytotoxic activity (apoptosis induction), LDH activity” value in data set [2] and in data set [6] was “showed cytotoxic activity” each time. Moreover, the “LDH activity of supernatant, normalized by LacZ activity” value in the data set on Cos cells [3] is recorded as “high LDH activity”. The “cytotoxic activity, LDH activity” value in data set [4] is given as “no cytotoxic activity”. Moreover, the “E3 protein concentration effective for apoptosis induction (LDH activity)” value in the data set on Cos cells [5] (0 to 2.0 ng/ml) was no less than 0.4 ng/mL. In addition, in the data set on Cos cells [5], the “E3 protein concentration above which the effect on apoptosis induction remained unchanged” value is on record as “higher than 1 ng/ml”.

In the case of “E3m: amino acid substitution (D136E) mutant of E3, SEQ ID NO: 35 (CEAEPCRNGGICTELVANYSCECPGEFMGRNCQYK; listed as Mus musculus)”, the “increase in LDH activity of supernatant, normalized by LacZ activity” value with Cos cells [7] is “lost”.

For “F IX: EGF domain of blood coagulation factor IX, SEQ ID NO: 25 (CESNPCLNGGICKDDISSYECWCQVGFEGRNCEL; listed as Mus musculus)”, the “LDH activity of supernatant, normalized by LacZ activity” value with Cos cells [3] is reported as “high LDH activity”.

B1: E3C1: fusion peptide between EGF3 domain and Discoidin1, amino acids 123 to 319 of mouse Del-1, SEQ ID NO: 42 (protein, listed as Mus musculus)
chain: CEAEPCRNGGICTDLVANYSCECPGEFMGRNCQYKCSGPLGIEGGIISNQQITASSTHRALFGLRKWYPYYARLNKKGLINAWTAAENDRWPWIQINLQRKMRVTGVITQGAKRIGSPEYIKSYKIAYSNDGKTWAMYKVKGTNEEMVFRGNVDNNTPYANSFTPPIKAQYVRLYPQICRRHCTLRMELLGCELSGC
As for B1, in data set [8], the “antitumor effect (tumor size) of E3C1 cDNA together with FasL cDNA compared with FasL alone” value is on record as “higher antitumor effect”.
